Source: PubChem BioAssay (NCI)
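Method: 48-hour compound exposure of cells in 96-well plates, five concentrations, linear interpolation of endpoints. TGI marks complete inhibition of growth.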

Columns and labels:
Assay in all cases: growth of human tumour cells (NCI), 48 h
A498 renal = system: A498 renal
786-0 renal = system: 786-0 renal
NCI-H522 lung = system: NCI-H522 lung
OVCAR-3 ovarian = system: OVCAR-3 ovarian
HCT-15 colon = system: HCT-15 colon
LXFL 529 NSCLC = system: LXFL 529 NSCLC
OVCAR-8 ovarian = system: OVCAR-8 ovarian
UACC-62 melanoma = system: UACC-62 melanoma
KM20L2 colon = system: KM20L2 colon
UACC-257 melanoma = system: UACC-257 melanoma
SNB-19 CNS = system: SNB-19 CNS
SN12C renal = system: SN12C renal
U251 CNS = system: U251 CNS
SR leukemia = system: SR leukemia
HOP-92 NSCLC = system: HOP-92 NSCLC
COLO 205 colon = system: COLO 205 colon
MOLT-4 leukemia = system: MOLT-4 leukemia
UO-31 renal = system: UO-31 renal
SNB-75 CNS = system: SNB-75 CNS
IGROV1 ovarian = system: IGROV1 ovarian
K-562 leukemia = system: K-562 leukemia
DLD-1 colon = system: DLD-1 colon
SF-295 CNS = system: SF-295 CNS
LOX IMVI melanoma = system: LOX IMVI melanoma
DMS 114 small cell lung = system: DMS 114 small cell lung
NCI-H460 lung = system: NCI-H460 lung
NCI-H226 lung = system: NCI-H226 lung
OVCAR-5 ovarian = system: OVCAR-5 ovarian
M19-MEL melanoma = system: M19-MEL melanoma
MALME-3M melanoma = system: MALME-3M melanoma
HL-60(TB) leukemia = system: HL-60(TB) leukemia
EKVX NSCLC = system: EKVX NSCLC
SK-MEL-2 melanoma = system: SK-MEL-2 melanoma
HCT-116 colon = system: HCT-116 colon
HT29 colon = system: HT29 colon
SK-MEL-28 melanoma = system: SK-MEL-28 melanoma
A549 NSCLC = system: A549 NSCLC
HCC-2998 colon = system: HCC-2998 colon
KM12 colon = system: KM12 colon
RPMI-8226 leukemia = system: RPMI-8226 leukemia
HOP-62 NSCLC = system: HOP-62 NSCLC
CCRF-CEM leukemia = system: CCRF-CEM leukemia
DMS 273 small cell lung = system: DMS 273 small cell lung
SK-OV-3 ovarian = system: SK-OV-3 ovarian
ACHN renal = system: ACHN renal
SF-268 CNS = system: SF-268 CNS
SK-MEL-5 melanoma = system: SK-MEL-5 melanoma
TK-10 renal = system: TK-10 renal
CAKI-1 renal = system: CAKI-1 renal
OVCAR-4 ovarian = system: OVCAR-4 ovarian
M14 melanoma = system: M14 melanoma
SW-620 colon = system: SW-620 colon
NCI-H23 lung = system: NCI-H23 lung

Measured: TGI

CC(=O)[O-].[O-]c1c(Cl)cc(Cl)cc1/C=N/Nc1ccccn1.[Zn+2]
9.01 µM: EKVX NSCLC
0.803 µM: HOP-92 NSCLC
2.43 µM: UACC-62 melanoma
0.707 µM: OVCAR-3 ovarian
1.98 µM: SK-MEL-2 melanoma
6.43 µM: OVCAR-5 ovarian
0.581 µM: MOLT-4 leukemia
0.605 µM: DMS 114 small cell lung
0.736 µM: HL-60(TB) leukemia
20.6 µM: NCI-H522 lung
0.675 µM: SR leukemia
5.41 µM: SF-295 CNS
0.837 µM: OVCAR-8 ovarian
not listed: RPMI-8226 leukemia | HOP-62 NSCLC | CCRF-CEM leukemia | DMS 273 small cell lung | SK-OV-3 ovarian | ACHN renal | SF-268 CNS | SK-MEL-5 melanoma | TK-10 renal | CAKI-1 renal | OVCAR-4 ovarian | M14 melanoma | SW-620 colon | NCI-H23 lung
> 100 µM: all other assays above

O=C1[C@H](Cl)[C@H]2c3cc4ccccc4nc3Oc3ccccc3N12
42.5 µM: UACC-62 melanoma
58 µM: HCT-116 colon
17.7 µM: SNB-75 CNS
70.2 µM: DMS 114 small cell lung
88 µM: NCI-H522 lung
65.5 µM: RPMI-8226 leukemia
72.6 µM: UO-31 renal
not listed: HOP-92 NSCLC | K-562 leukemia
> 100 µM: all other assays above
